# Literature values as cited in patent US20250000791A1, “OPHTHALMIC FORMULATION FOR PREVENTING AND/OR TREATING CATARACTS BY EYE DROP ADMINISTRATION” (CHENGDU RUIMU BIOPHARMACEUTICALS CO., LTD., priority 2021, published 2025).
# Where two headings read alike, the source gives them in different places.
# Legend:
# [1] = system: crystallins; conditions: lens fragments of cataract patients; lanosterol 0.20 mM, 25-HC 0.25 and 0.50 mM, 37° C., 72 h
# [2] = system: animal cataract model
# [3] = 0.5% LAN solution with 15% DMSO, 20% ethanol or polysorbate 80, injected into the vitreous body of rats
# [4] = system: cataract nucleus obtained after cataract extraction; conditions: 25 mM lanosterol solution, 6 days
Structure (SMILES),binding to crystallins / solving cataract [1],effect on cataract ([2]; administration by eye drops alone),"effect on cataract ([2]; nanoparticles into the vitreous cavity once every 3 days combined with 25 mM eye drops six times a week, 6 weeks)",effect on lens opacity [3],effect on the vitreous body [3],solubility in water,cataract clarity [4]
C[C@H](CCCC(C)(C)O)[C@H]1CC[C@H]2[C@@H]3CC=C4C[C@@H](O)CC[C@]4(C)[C@H]3CC[C@]12C [25-hydroxycholesterol],did not find that lanosterol or 25-hydroxycholesterol can bind to crystallins,–,–,–,–,–,–
CC(C)=CCC[C@@H](C)[C@H]1CC[C@@]2(C)C3=C(CC[C@]12C)[C@@]1(C)CC[C@H](O)C(C)(C)[C@@H]1CC3 [lanosterol],did not find that lanosterol or 25-hydroxycholesterol can bind to crystallins,cannot treat cataracts,the cataract disappeared,poses a risk of promoting lens opacity,causes vitreous turbidness,low solubility in water,no significant improvement in cataract clarity
